Measured values as given in patent publication US20090246292A1, “ANTIMICROBIAL FORMULATIONS COMPRISING A QUINONE AND A COPPER SALT” (priority 2006, published 2009).
Values joined by “and” are separate entries in the source; they are usually repeats but may differ in a detail not shown here. Equal entries are not always repeated.

Assays:
P. acnes PRP-003 [1] = assay: Disc diffusion assay (DDA), also supplemented; format: cell-based, Propionibacterium acnes; conditions: 200 μg per disc
Procedure: (§4) The propionibacteria were cultured and maintained on Wilkins-Chalgren Anaerobe Medium (agar and broth) at pH 6.0; all cultures were incubated anaerobically at 37° C. for 72 hours.
(§5) A sterile paper disc was impregnated with a sample of the test compound in a suitable solvent and 30 minutes allowed for the solvents to evaporate (where possible). The disc was then placed on an agar plate onto which the test micro-organism had been inoculated. The plate was then incubated under the conditions described above, following which it was examined visually for signs of bacterial growth. […] The diameter of this zone of “inhibition” was measured using a ProtoCOL™ automated zone sizer (Synbiosis, Cambridge, UK).
(§6) For assays using Propionibacterium spp. strains the supplements used in the examples below were lipid (either Tween™ 80 or triolein, both at 1% v/v) and sodium chloride (100 mM).

P. acnes PRP-002 [2] = assay: Disc diffusion assay (DDA), also supplemented; format: cell-based, Propionibacterium acnes; conditions: 200 μg per disc
Procedure: as §4, §5, §6

P. granulosum PRP-043 [3] = assay: Disc diffusion assay (DDA), also supplemented; format: cell-based; conditions: 200 μg per disc
Procedure: as §4, §5, §6

P. granulosum PRP-005 = assay: Disc diffusion assay (DDA), also supplemented; format: cell-based; conditions: 200 μg per disc
Procedure: as §4, §5, §6

P. acnes PRP-059 [4] = assay: Disc diffusion assay (DDA), also supplemented; format: cell-based, Propionibacterium acnes; conditions: 200 μg per disc
Procedure: as §4, §5, §6

P. acnes PRP-102 = assay: Disc diffusion assay (DDA), also supplemented; format: cell-based, Propionibacterium acnes; conditions: 200 μg per disc
Procedure: as §4, §5, §6

P. acnes NCTC 737 = assay: Minimum bactericidal concentration (MBC) assay; format: cell-based, Propionibacterium acnes
Procedure: (b) Minimum Bactericidal Concentration (MBC) Assay
Following incubation they were examined visually for bacterial growth.

[5] = tested on: panel of different propionibacterium strains; assay: MIC by agar dilution and (S)DDA, whole panel; format: cell-based, Propionibacterium spp; conditions: compound alone; also under supplemented conditions
Procedure: For (S)DDA experiments 200 μg of each test compound was added per disc. […] MIC experiments were performed in duplicate, DDA experiments as single replicates only. SDDA experiments were conducted in triplicate.
The activity of the salt (MIC by agar dilution and DDA) was also determined against a panel of different propionibacterium strains. Supplemented DDA experiments were also carried out. […] DMSO was used as the diluting solvent. MIC experiments were performed in duplicate and DDA experiments as single replicates only.

S. aureus ATCC 29213 [6] = assay: Disc diffusion assay (DDA), also supplemented
Procedure: The staphylococci were cultured and maintained on Mueller-Hinton Medium (agar and broth) at pH 7.2; cultures were incubated aerobically at 37° C. for 19-20 hours.
(d) Disc Diffusion Assay (DDA)
as §5
(f) Supplemented Disc Diffusion Assays
(§7) For assays using S. aureus ATCC 29213 the supplements used were sodium chloride (100 mM), lipid (Tween™ 80 at 1% v/v) and horse serum (5% v/v).

P. granulosum PRP-055 = assay: Disc diffusion assay (DDA), also supplemented; format: cell-based; conditions: 200 μg per disc
Procedure: as §4, §5, §6

P. granulosum PRP-021 [7] = assay: Disc diffusion assay (DDA), also supplemented; format: cell-based; conditions: 200 μg per disc
Procedure: as §4, §5, §6

P. acnes PRP-010 = assay: Disc diffusion assay (DDA), also supplemented; format: cell-based, Propionibacterium acnes; conditions: 200 μg per disc
Procedure: as §4, §5, §6

P. acnes PRP-046 = assay: Disc diffusion assay (DDA), also supplemented; format: cell-based, Propionibacterium acnes; conditions: 200 μg per disc
S. aureus ATCC 29213 [8] = assay: Synergy disc diffusion assay (SDDA), also supplemented;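 note: disc diffusion on Mueller-Hinton agar at pH 7.2, aerobic incubation at 37 °C lasting 19-20 h, two compounds assessed jointly for combined antimicrobial effect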
Procedure: (e) Synergy Disc Diffusion Assay (SDDA)
This is a variation on the DDA method, in which two compounds are tested together for their combined antimicrobial activity.
Two test compounds A and B were placed on a single paper disc and the above described DDA procedure repeated.
(f) Supplemented Disc Diffusion Assays
as §7

P. acnes PRP-002 [9] = conditions: P. acnes PRP-002 (resistance Tet/MLS); agar dilution
Procedure: (§1) This is a standard international method for quantitatively assessing the antimicrobial activity of a compound in a solid medium. […] A set amount of these antimicrobial stock solutions was then added to molten agar medium (ca. 55° C.), mixed thoroughly, poured into sterile Petri dishes and allowed to cool/set. The culture medium was as described above.
(§2) A Multipoint™ Inoculator (AQS Manufacturing Ltd, UK) was used to inoculate the plates by spotting the inocula onto the surface of the agar, delivering approximately 1 to 2 μl per spot (yielding 10^5 CFU (colony forming units) per spot).
(§3) The plate(s) were then incubated under the conditions described above, following which they were examined visually for signs of bacterial growth. The MIC value was ascertained when there was a marked reduction in, or total loss of, growth on the test plate at the lowest concentration as compared to that of the growth on the control plate.

P. acnes PRP-053 = P. acnes PRP-053 (resistance Tet/MLS); agar dilution
Procedure: as §1, §2, §3

P. acnes PRP-004 = P. acnes PRP-004 (resistance Tet); agar dilution
Procedure: as §1, §2, §3

P. acnes PRP-039 = P. acnes PRP-039 (resistance Tet/MLS); agar dilution
Procedure: as §1, §2, §3

P. granulosum PRP-043 [10] = conditions: P. granulosum PRP-043 (resistance MLS); agar dilution
Procedure: as §1, §2, §3

P. acnes PRP-059 [11] = conditions: P. acnes PRP-059 (resistance MLS); agar dilution
Procedure: as §1, §2, §3

P. granulosum PRP-021 [12] = conditions: P. granulosum PRP-021 (resistance MLS); agar dilution
Procedure: as §1, §2, §3

P. acnes PRP-008 [13] = conditions: P. acnes PRP-008 (resistance Clin); agar dilution
Procedure: as §1, §2, §3

P. acnes PRP-068 = P. acnes PRP-068 (resistance Ery); agar dilution
Procedure: as §1, §2, §3

P. acnes PRP-003 [14] = conditions: P. acnes PRP-003 (resistance Tet); agar dilution
Procedure: as §1, §2, §3

P. acnes PRP-026 = P. acnes PRP-026 (resistance MLS); agar dilution
Procedure: as §1, §2, §3

P. granulosum PRP-019 = P. granulosum PRP-019 (resistance MLSK); agar dilution
Procedure: as §1, §2, §3

P. acnes PRP-008 [15] = assay: Disc diffusion assay (DDA), also supplemented; format: cell-based, Propionibacterium acnes; conditions: 200 μg per disc
Procedure: as §4, §5, §6

In the case of O.O.O.O.O.O=S(=O)([O-])[O-].[Cu+2] [Copper (II) sulphate pentahydrate], the “DDA + salt” value (P. acnes PRP-003 [1]) is reported as 51.99 mm, the “DDA + lipid” value (P. acnes PRP-003 [1]; 1% (v/v) triolein) is reported as 45.91 mm and the DDA (P. acnes PRP-003 [1]; single replicate) is reported as 52.60 mm. For the same compound, the DDA (P. acnes PRP-003 [1]; Table 12 series) was 50.18 mm, the “DDA + salt” value (P. acnes PRP-002 [2]) was 50.77 mm and the “DDA + lipid” value (P. acnes PRP-002 [2]; 1% (v/v) triolein) was 47.13 mm. The DDA (P. acnes PRP-002 [2]; single replicate) was 49.25 mm, the DDA (P. acnes PRP-002 [2]; Table 12 series) was 57.92 mm and the “DDA + salt” value (P. granulosum PRP-043 [3]) was 50.17 mm. The “DDA + lipid” value (P. granulosum PRP-043 [3]; 1% (v/v) triolein) was 41.35 mm, the DDA (P. granulosum PRP-043 [3]; single replicate) was 46.82 mm and the DDA (P. granulosum PRP-043 [3]; Table 12 series) was 56.56 mm. For the same compound, the “DDA + salt” value (P. granulosum PRP-005) was 29.19 mm, the “DDA + lipid” value (P. granulosum PRP-005; 1% (v/v) triolein) was 24.32 mm and the DDA (P. granulosum PRP-005; single replicate) was 24.02 mm. For the same compound, the DDA (P. granulosum PRP-005; Table 12 series) was 22.48 mm, the “DDA + salt” value (P. acnes PRP-059 [4]) was 55.33 mm and the “DDA + lipid” value (P. acnes PRP-059 [4]; 1% (v/v) triolein) was 48.95 mm. For the same compound, the DDA (P. acnes PRP-059 [4]; single replicate) was 48.04 mm, the DDA (P. acnes PRP-059 [4]; Table 12 series) was 50.70 mm and the “DDA + salt” value (P. acnes PRP-102) was 49.25 mm. The “DDA + lipid” value (P. acnes PRP-102; 1% (v/v) triolein) was 50.77 mm, the DDA (P. acnes PRP-102; single replicate) was 46.52 mm and the DDA (P. acnes PRP-102; Table 12 series) was 51.65 mm. For the same compound, the MBC (P. acnes NCTC 737) was 125 µg/mL, the “activity against propionibacterium strains tested (in words)” value [5] was “excellent level of activity” and the DDA (S. aureus ATCC 29213 [6]) was 0 mm and 0.00 (±0.00) mm. The “DDA + lipid” value (S. aureus ATCC 29213 [6]) was 0 mm, the “DDA + salt” value (S. aureus ATCC 29213 [6]) was 0 mm and the “DDA + salt & serum” value (S. aureus ATCC 29213 [6]) was 0 mm and 0.00 (±0.00) mm. The “DDA + salt” value (P. granulosum PRP-055) was 28.88 mm, the “DDA + lipid” value (P. granulosum PRP-055; 1% (v/v) triolein) was 27.97 mm and the DDA (P. granulosum PRP-055; single replicate) was 27.67 mm. The DDA (P. granulosum PRP-055; Table 12 series) was 31.78 mm, the “DDA + salt” value (P. granulosum PRP-021 [7]) was 32.84 mm and the “DDA + lipid” value (P. granulosum PRP-021 [7]; 1% (v/v) triolein) was 28.28 mm. The DDA (P. granulosum PRP-021 [7]; single replicate) was 27.67 mm, the DDA (P. granulosum PRP-021 [7]; Table 12 series) was 29.59 mm and the “DDA + salt” value (P. acnes PRP-010) was 62.33 mm. For the same compound, the “DDA + lipid” value (P. acnes PRP-010; 1% (v/v) triolein) was 46.82 mm, the DDA (P. acnes PRP-010; single replicate) was 63.24 mm and the DDA (P. acnes PRP-010; Table 12 series) was 46.73 mm. The “DDA + salt” value (P. acnes PRP-046) was 63.54 mm, the “DDA + lipid” value (P. acnes PRP-046; 1% (v/v) triolein) was 60.81 mm and the DDA (P. acnes PRP-046; single replicate) was 53.81 mm. For the same compound, the DDA (P. acnes PRP-046; Table 12 series) was 50.29 mm, the SDDA area increase (S. aureus ATCC 29213 [8]) was 88.33% and the SDDA increase (S. aureus ATCC 29213 [8]) was 15.05 mm. For the same compound, the “SDDA with TBHQ” value (S. aureus ATCC 29213 [8]) was 55.47 mm, the “SS SDDA area increase” value (S. aureus ATCC 29213 [8]) was 10.90% and the “SS SDDA increase” value (S. aureus ATCC 29213 [8]) was 2.32 mm. For the same compound, the “SS SDDA with TBHQ” value (S. aureus ATCC 29213 [8]) was 46.00 mm, the MIC (P. acnes PRP-002 [9]) was 7.8 µg/mL and the MIC (P. acnes PRP-053) was 7.8 µg/mL. For the same compound, the MIC (P. acnes PRP-004) was 7.8 µg/mL, the MIC (P. acnes PRP-039) was 7.8 µg/mL and the MIC (P. granulosum PRP-043 [10]) was 7.8 µg/mL. The MIC (P. acnes PRP-059 [11]) was 7.8 µg/mL, the MIC (P. granulosum PRP-021 [12]) was 62.5 µg/mL and the MIC (P. acnes PRP-008 [13]) was 7.8 µg/mL. For the same compound, the MIC (P. acnes PRP-068) was 7.8 µg/mL, the MIC (P. acnes PRP-003 [14]) was 7.8 µg/mL and the MIC (P. acnes PRP-026) was 7.8 µg/mL. For the same compound, the MIC (P. granulosum PRP-019) was 62.5 µg/mL, the “DDA + salt” value (P. acnes PRP-008 [15]) was 51.99 mm and the “DDA + lipid” value (P. acnes PRP-008 [15]; 1% (v/v) triolein) was 48.65 mm. It also gave a DDA (P. acnes PRP-008 [15]; single replicate) of 52.29 mm and a DDA (P. acnes PRP-008 [15]; Table 12 series) of 43.70 mm.
